Experiment [1] concerns the target isolated recombinant JAK2 kinase domain (Homo sapiens, UniProt O60674). Kind of experiment: JAK enzyme assay (Caliper LabChip), JAK2 kinase domain. To be noted: ATP 25 μM, 0.2 nM JAK2, Morrison tight binding model.
Protocol: JAK Enzyme Assays were Carried Out as Follows:
The activity of the isolated recombinant JAK1 and JAK2 kinase domain was measured by monitoring phosphorylation of a peptide derived from JAK3 ([sequence] fluorescently labeled on the N-terminus with 5-carboxyfluorescein) using the Caliper LabChip® technology (Caliper Life Sciences, Hopkinton, Mass.). […] Reactions were incubated at 22° C. in 384-well polypropylene microtiter plates for 30 minutes and then stopped by addition of 25 μL of an EDTA containing solution (100 mM HEPES buffer (pH 7.2), 0.015% Brij-35, 150 mM EDTA), resulting in a final EDTA concentration of 50 mM. After termination of the kinase reaction, the proportion of phosphorylated product was determined as a fraction of total peptide substrate using the Caliper LabChip® 3000 according to the manufacturer's specifications.
The test system of experiment [2] is JAK1-dependent STAT6 phosphorylation downstream of IL-13 stimulation, BEAS-2B cells. The experiment is described as follows: JAK1 pathway assay in cell lines: P-STAT6 in BEAS-2B cells + IL13. The experiment is classed as cell-based. Conditions: BEAS-2B human bronchial epithelial cells, 1 hr compound preincubation, read-out: P-STAT6 BEAS2B + IL13 IC50. How it is done:
JAK1 Pathway Assay in Cell Lines was Carried Out as Follows:
Inhibitor potency (EC50) was determined in cell-based assays designed to measure JAK1 dependent STAT phosphorylation. As noted above, inhibition of IL-4, IL-13, and IL-9 signaling by blocking the Jak/Stat signaling pathway can alleviate asthmatic symptoms in pre-clinical lung inflammation models (Mathew et al., 2001, J Exp Med 193(9): 1087-1096; Kudlacz et. al., 2008, Eur J. Pharmacol 582(1-3): 154-161).
In one assay approach, TF-1 human erythroleukemia cells obtained from the American Type Culture Collection (ATCC; Manassas, Va.) were used to measure JAK1-dependent STAT6 phosphorylation downstream of IL-13 stimulation. Prior to use in the assays, TF-1 cells were starved of GM-CSF overnight in OptiMEM medium (Life Technologies, Grand Island, N.Y.) supplemented with 0.5% charcoal/dextran stripped fetal bovine serum (FBS), 0.1 mM non-essential amino acids (NEAA), and 1 mM sodium pyruvate. The assays were run in 384-well plates in serum-free OptiMEM medium using 300,000 cells per well. In a second assay approach, BEAS-2B human bronchial epithelial cells obtained from ATCC were plated at 100,000 cells per well of a 96-well plate one day prior to the experiment. The BEAS-2B assay was run in complete growth medium (bronchial epithelial basal medium plus bulletkit; Lonza; Basel, Switzerland).
Test compounds were serially diluted 1:2 in DMSO and then diluted 1:50 in medium just before use. Diluted compounds were added to the cells, for a final DMSO concentration of 0.2%, and incubated for 30 m (for the TF-1 assay) or 1 hr (for the BEAS-2B assay) at 37° C. Then, cells were stimulated with human recombinant cytokine at their respective EC90 concentrations, as previously determined for each individual lot. Cells were stimulated with […] (R&D Systems, Minneapolis, Minn.) for 15 m/at 37° C. The TF-1 cell reactions were stopped by the direct addition of 10× lysis buffer (Cell Signaling Technologies, Danvers, Mass.), whereas the BEAS-2B cell incubations were halted by the removal of medium and addition of 1× lysis buffer. The resultant samples were frozen in the plates at −80° C. Compound mediated inhibition of STAT6 phosphorylation was measured in the cell lysates using MesoScale Discovery (MSD) technology (Gaithersburg, Md.). EC50 values were determined as the concentration of compound required for 50% inhibition of STAT phosphorylation relative to that measured for the DMSO control.

Experiment [3] addresses isolated recombinant JAK1 kinase domain (Homo sapiens, UniProt P23458). Kind of experiment: JAK enzyme assay (Caliper LabChip), JAK1 kinase domain. Conditions: ATP 25 μM; 1.5 nM JAK1; Morrison tight binding model. Type of experiment: biochemical.

Molecules are shown by their SMILES. Where two headings read alike, the source gives them in different places. Some results are limits rather than exact numbers.

The text below walks through data of patent US20220024945A1, “THERAPEUTIC COMPOUNDS AND COMPOSITIONS, AND METHODS OF USE THEREOF” (Genentech, Inc., priority 2017, published 2022).

Chain of isolated recombinant JAK1 kinase domain (P23458 875-1153 limits assumed): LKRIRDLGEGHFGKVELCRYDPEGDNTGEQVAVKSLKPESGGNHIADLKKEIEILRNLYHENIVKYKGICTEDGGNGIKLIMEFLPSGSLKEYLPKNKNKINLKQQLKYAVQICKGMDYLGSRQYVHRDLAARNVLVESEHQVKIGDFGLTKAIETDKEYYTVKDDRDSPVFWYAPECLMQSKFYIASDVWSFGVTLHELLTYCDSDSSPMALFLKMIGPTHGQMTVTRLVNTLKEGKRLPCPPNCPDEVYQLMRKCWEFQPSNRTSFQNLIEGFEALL
Chain of isolated recombinant JAK2 kinase domain (O60674 849-1124 limits assumed): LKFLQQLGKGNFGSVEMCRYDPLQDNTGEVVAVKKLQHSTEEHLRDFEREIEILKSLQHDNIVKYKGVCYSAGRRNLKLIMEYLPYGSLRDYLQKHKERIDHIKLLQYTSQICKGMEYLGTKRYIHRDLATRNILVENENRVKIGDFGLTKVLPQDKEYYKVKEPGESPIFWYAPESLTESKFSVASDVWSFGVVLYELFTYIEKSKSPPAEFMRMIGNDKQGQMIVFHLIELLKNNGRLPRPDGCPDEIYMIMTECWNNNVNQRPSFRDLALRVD

For the compound `O=C(Nc1c[nH]nc1-c1cc(SC2CCCNC2)ccc1OC(F)F)c1cnn2cccnc12` (single isomer, unassigned) [Example 36, N-[3-[2-(difluoromethoxy)-5-(3-piperidylsulfanyl)phenyl]-1H-pyrazol-4-yl]pyrazolo[1,5-a]pyrimidine-3-carboxamide], the inhibition constant (Ki) was found to be 51.7 nM in experiment [1] and 91.5 nM in experiment [3]. Moreover, the IC50 in experiment [2] was over 1000 nM.
For `O=C(Nc1cn(Cc2cn(C3CCN([C@@H]4CCOC4)CC3)nn2)nc1-c1cc(SC2COC2)ccc1OC(F)F)c1cnn2cccnc12` (stereo in doubt) [Example 21, N-[3-[2-(difluoromethoxy)-5-(oxetan-3-ylsulfanyl)phenyl]-1-[[1-[1-[rac-(3R)-tetrahydrofuran-3-yl]-4-piperidyl]triazol-4-yl]methyl]pyrazol-4-yl]pyrazolo[1,5-a]pyrimidine-3-carboxamide], the Ki in experiment [1] came out at 0.38 nM; in experiment [3] it was 0.66 nM. Also, the IC50 in experiment [2] (Homo sapiens, BEAS-2B, 1 h) came out at 57 nM.
In the case of `O=C(Nc1cn(C2COC2)nc1-c1cc(SC2COC2)ccc1OC(F)F)c1cnn2cccnc12` [Example 24, N-[3-[2-(difluoromethoxy)-5-(oxetan-3-ylsulfanyl)phenyl]-1-(oxetan-3-yl)pyrazol-4-yl]pyrazolo[1,5-a]pyrimidine-3-carboxamide], the figures for the Ki in experiment [1] and in experiment [3] were 0.22 nM and 0.46 nM, respectively. Besides, in experiment [2] (Homo sapiens, BEAS-2B, 1 h), the IC50 stood at 17 nM.
As to `CC(C)Sc1ccc(OC(F)F)c(-c2nn(Cc3cn(C4CCN([C@H]5CCOC5)CC4)nn3)cc2NC(=O)c2cnn3cccnc23)c1` (stereo in doubt) [Example 11, N-[3-[2-(difluoromethoxy)-5-isopropylsulfanyl-phenyl]-1-[[1-[1-[rac-(3S)-tetrahydrofuran-3-yl]-4-piperidyl]triazol-4-yl]methyl]pyrazol-4-yl]pyrazolo[1,5-a]pyrimidine-3-carboxamide; formic acid], the values for the Ki in experiment [1] and in experiment [3] were 0.49 nM and 0.69 nM, respectively. In addition, the half-maximal inhibitory concentration (IC50) in experiment [2] (Homo sapiens, BEAS-2B, 1 h) worked out at 23 nM.
In the same order, the values of `CC(CO)Sc1ccc(OC(F)F)c(-c2n[nH]cc2NC(=O)c2cnn3cccnc23)c1` (centres unmarked) [Example 4, N-[3-[2-(difluoromethoxy)-5-(2-hydroxy-1-methyl-ethyl)sulfanyl-phenyl]-1H-pyrazol-4-yl]pyrazolo[1,5-a]pyrimidine-3-carboxamide] are 0.15 nM, 0.23 nM and 35 nM.
Consider `CC[C@H](O)Cn1cc(NC(=O)c2cnn3cccnc23)c(-c2cc(SC)ccc2OC(F)F)n1` (racemic) [Example 41, N-[3-[2-(difluoromethoxy)-5-methylsulfanyl-phenyl]-1-[rac-(2S)-2-hydroxybutyl]pyrazol-4-yl]pyrazolo[1,5-a]pyrimidine-3-carboxamide], for which the figures for the Ki in experiment [1] and in experiment [3] were 0.25 nM and 0.35 nM, respectively. Moreover, the IC50 in experiment [2] (Homo sapiens, BEAS-2B, 1 h) amounted to 13 nM.
Take `O=C(Nc1cn(Cc2cn(C3CCN([C@@H]4CCOC4)CC3)nn2)nc1-c1cc(SC2CC2)ccc1OC(F)F)c1cnn2cccnc12` (stereo in doubt) [Example 14, N-[3-[5-cyclopropylsulfanyl-2-(difluoromethoxy)phenyl]-1-[[1-[1-[rac-(3R)-tetrahydrofuran-3-yl]-4-piperidyl]triazol-4-yl]methyl]pyrazol-4-yl]pyrazolo[1,5-a]pyrimidine-3-carboxamide]: the Ki in experiment [1] amounted to 0.29 nM; in experiment [3] it was 0.4 nM. Besides, the IC50 in experiment [2] (Homo sapiens, BEAS-2B, 1 h) came to 13 nM.
For `O=C(Nc1cn(CC(=O)N2CC=CCC2)nc1-c1cc(SC2COC2)ccc1OC(F)F)c1cnn2cccnc12` [Example 25, N-[3-[2-(difluoromethoxy)-5-(oxetan-3-ylsulfanyl)phenyl]-1-[2-(3,6-dihydro-2H-pyridin-1-yl)-2-oxo-ethyl]pyrazol-4-yl]pyrazolo[1,5-a]pyrimidine-3-carboxamide] the same measures were 0.59 nM, 0.28 nM and 14 nM.
For `O=C(Nc1cn(Cc2cn(C3CCN(C4COC4)CC3)nn2)nc1-c1cc(SC2COC2)ccc1OC(F)F)c1cnn2cccnc12` [Example 17, N-[3-[2-(difluoromethoxy)-5-(oxetan-3-ylsulfanyl)phenyl]-1-[[1-[1-(oxetan-3-yl)-4-piperidyl]triazol-4-yl]methyl]pyrazol-4-yl]pyrazolo[1,5-a]pyrimidine-3-carboxamide], the Ki in experiment [1] was 0.57 nM; in experiment [3] it was 0.81 nM. Also, the IC50 in experiment [2] (Homo sapiens, BEAS-2B, 1 h) turned out to be 130 nM.
In the same order, the values of `CN(C)C(=O)Cn1cc(NC(=O)c2cnn3cccnc23)c(-c2cc(SC3COC3)ccc2OC(F)F)n1` [Example 26, N-[3-[2-(difluoromethoxy)-5-(oxetan-3-ylsulfanyl)phenyl]-1-[2-(dimethylamino)-2-oxo-ethyl]pyrazol-4-yl]pyrazolo[1,5-a]pyrimidine-3-carboxamide] are 0.93 nM, 0.32 nM and 34 nM.
As to `O=C(Nc1cn(C2CN(C3CC(O)C3)C2)nc1-c1cc(SC2COC2)ccc1OC(F)F)c1cnn2cccnc12` (single isomer, unassigned) [Example 39, N-[3-[2-(difluoromethoxy)-5-(oxetan-3-ylsulfanyl)phenyl]-1-[1-(3-hydroxycyclobutyl)azetidin-3-yl]pyrazol-4-yl]pyrazolo[1,5-a]pyrimidine-3-carboxamide], the Ki was found to be 1.18 nM in experiment [1] and 1.44 nM in experiment [3]. In addition, the IC50 in experiment [2] (Homo sapiens, BEAS-2B, 1 h) was 35 nM.
In the same order, the values of `CC(C)Sc1ccc(OC(F)F)c(-c2nn(Cc3cn(C4CCN([C@@H]5CCOC5)CC4)nn3)cc2NC(=O)c2cnn3cccnc23)c1` (stereo in doubt) [Example 12, N-[3-[2-(difluoromethoxy)-5-isopropylsulfanyl-phenyl]-1-[[1-[1-[rac-(3R)-tetrahydrofuran-3-yl]-4-piperidyl]triazol-4-yl]methyl]pyrazol-4-yl]pyrazolo[1,5-a]pyrimidine-3-carboxamide; formic acid] are 0.46 nM, 0.64 nM and 22 nM.
As to `CSc1ccc(OC(F)F)c(-c2nn(C3CCOCC3)cc2NC(=O)c2cnn3cccnc23)c1` [Example 16, N-[3-[2-(difluoromethoxy)-5-methylsulfanyl-phenyl]-1-tetrahydropyran-4-yl-pyrazol-4-yl]pyrazolo[1,5-a]pyrimidine-3-carboxamide], in experiment [1], the Ki was found to be 0.91 nM. In experiment [2] (Homo sapiens, BEAS-2B, 1 h), the IC50 was 31 nM.
For `C[C@H](O)Cn1cc(Sc2ccc(OC(F)F)c(-c3nn(CC(=O)N(C)C)cc3NC(=O)c3cnn4cccnc34)c2)cn1` [Example 46, (S)-N-(3-(2-(difluoromethoxy)-5-((1-(2-hydroxypropyl)-1H-pyrazol-4-yl)thio)phenyl)-1-(2-(dimethylamino)-2-oxoethyl)-1H-pyrazol-4-yl)pyrazolo[1,5-a]pyrimidine-3-carboxamide], the results for the Ki in experiment [1] and in experiment [3] were 1.28 nM and 1.24 nM, respectively. Besides, the IC50 in experiment [2] (Homo sapiens, BEAS-2B, 1 h) came to 223 nM.
On to `CN1CCCC(Sc2ccc(OC(F)F)c(-c3n[nH]cc3NC(=O)c3cnn4cccnc34)c2)C1` (single isomer, unassigned) [Example 31, N-[3-[2-(difluoromethoxy)-5-[(1-methyl-3-piperidyl)sulfanyl]phenyl]-1H-pyrazol-4-yl]pyrazolo[1,5-a]pyrimidine-3-carboxamide], for which the values for the Ki in experiment [1] and in experiment [3] were 3.47 nM and 9.73 nM, respectively.
`O=C(Nc1c[nH]nc1-c1cc(SC2CCOC2)ccc1OC(F)F)c1cnn2cccnc12` (centres unmarked) [Example 8, N-[3-[2-(difluoromethoxy)-5-tetrahydrofuran-3-ylsulfanyl-phenyl]-1H-pyrazol-4-yl]pyrazolo[1,5-a]pyrimidine-3-carboxamide]: in experiment [2] (Homo sapiens, BEAS-2B, 1 h), the IC50 was 19 nM. Besides, in experiment [3], the Ki was found to be 0.45 nM.
Consider `Cn1cc(NC(=O)c2cnn3cccnc23)c(-c2cc(SC3COC3)ccc2OC(F)F)n1` [Example 15, N-[3-[2-(difluoromethoxy)-5-(oxetan-3-ylsulfanyl)phenyl]-1-methyl-pyrazol-4-yl]pyrazolo[1,5-a]pyrimidine-3-carboxamide], for which the Ki in experiment [1] came to 0.13 nM. Further, the IC50 in experiment [2] (Homo sapiens, BEAS-2B, 1 h) stood at 14 nM.
